US20220162215A1, “COMPOSITIONS AND METHODS OF USING THE SAME FOR TREATMENT OF NEURODEGENERATIVE AND MITOCHONDRIAL DISEASE” (MITOKININ, INC., priority 2019, published 2022)
pEC50: −log10 of the molar value. ≈ marks a conversion by molar mass, not a printed value. Like-named read-outs stand apart in the source and are kept apart here.

How the values were obtained:
[1] = Visual inspection of crystallization; assay type: physicochemical; design: key: 1: yes crystals; 0: no crystals; conditions: Tables 5A-5D
Procedure: (§2) Briefly, the Hela MKYP (Mito-Keima/YFP-Parkin) cells were seeded at 10K cells/well. EP/MTK compounds were added at seeding (cells were still in suspension). The cells were incubated with the EP/MTK compounds for 16 hours, then 1 μM FCCP/oligomycin was added for 6 hours. Prior to harvesting, cells were scored by eye under 20× magnification for the presence or absence of crystalline or aggregated compound, or round cells.

[2] = system: Hela MKYP (Mito-Keima/YFP-Parkin) cells; conditions: human, 22 h
Procedure: as §2

[3] = system: HeLa MKYP cells; assay: Human mitophagy assay (HeLa MKYP, mtKeima FACS, FCCP/oligomycin); assay type: cell-based
Procedure: (§1) Briefly, HeLa MKYP cells were plated at 10,000 cells/well in 96 well plates along with compounds at various concentrations. Following 16 hrs of incubation, cells were treated with 1 uM FCCP/oligomycin for 6 hours, then analyzed via FACS for the presence of mitochondria in lysosomes (as determined by an emissions spectrum shift from the pH-sensitive mtKeima tag). Examples are shown in FIG. 1 through FIG. 13 below.

[4] = system: HeLa MKYP cells; assay: Toxicity / cell death measured by DAPI staining (take-up); assay type: cell-based; conditions: for Toxicity (% positive for DAPI takeup @ 50 μM): Table 3; for Max cell death at 25 uM compound, 1 uM FO / Cell death at 25 μM (no FO): Table 3 Supplement B
Procedure: H2O2 treatment was performed as a control for cell death as measured by DAPI staining.
as §1, with “tag).” for “tag). Examples are shown in FIG. 1 through FIG. 13 below.”

[5] = system: mitotoxicity; assay: Mitotox safety margin (therapeutic window); assay type: cell-based; conditions: for Mitotox safety margin (Therapeutic window): class of the Ratio; for Ratio**: highest concentration with no observable mitotoxicity (μM) divided by the EC50 (μM) of the compound
[6] = Solubility in 1× PBS; assay type: physicochemical
[7] = Homo sapiens, HeLa, Table 3, read-out: Potency at 1 μM F/O toxin* (EC50 of mitophagy activation)
[8] = Homo sapiens, HeLa, Table 3 Supplement B, read-out: Mitophagy EC50 (HeLa mKeima assay)

Row | SMILES | pEC50 [3, 7] | pEC50 [3, 8] | Toxicity (% positive for DAPI takeup @ 50 μM) ([4]; 50 μM) | solubility [6] | Max cell death at 25 uM compound, 1 uM FO [4] | Cell death at 25 μM (no FO) [4] | Mitotox safety margin (Therapeutic window) [5] | Ratio** [5] | also measured
1 | c1ccc(CNc2ncnc3nc[nH]c23)cc1 [Compound 6BAP, 6-benzylaminopurine, reference compound] |  |  |  |  |  |  |  |  | Visual inspection of crystallization ([1]; 1.6 μM): 0; Visual inspection of crystallization ([1]; 3.1 μM): 0; Visual inspection of crystallization ([1]; 6.3 μM): 0; Visual inspection of crystallization ([1]; 12.5 μM): 0; Visual inspection of crystallization ([1]; 25.0 μM): 0; Visual inspection of crystallization ([1]; 50.0 μM): 0; Inspection of round cells ([2]; 1.6 μM): 0; Inspection of round cells ([2]; 3.1 μM): 0; Inspection of round cells ([2]; 6.3 μM): 0; Inspection of round cells ([2]; 12.5 μM): 0; Inspection of round cells ([2]; 25 μM): 0; Inspection of round cells ([2]; 50 μM): 0
2 | C[C@H]1CCc2ccccc2[C@@H]1Nc1ncnc2[nH]c(C(F)(F)F)cc12 [Compound 82] | 6.00 | 5.99 | 28.3% | 1 µM (≈ 0.346 µg/mL) |  |  |  |  | Max cell death at 25 uM compound, 1 uM FO ([4]; listed as EP-0037059): 26%; Cell death at 25 μM (no FO) ([4]; listed as EP-0037059): 4.9%; Mitotox safety margin (Therapeutic window) ([5]; listed as EP-0037059): + (ratio <10); Ratio** ([5]; listed as EP-0037059): 8.69
3 | O[C@@H]1Cc2ccccc2[C@H]1Nc1ncnc2[nH]c(C(F)(F)F)cc12 [Compound 88] |  | 4.82 | 7.6% | 19.2 µM (≈ 6.42 µg/mL) | 7.59% | 2.35% | + (ratio <10) | 1.66 | 
4 | O[C@H]1Cc2ccccc2[C@@H]1Nc1ncnc2[nH]c(C(F)(F)F)cc12 [Compound 90] |  | 4.73 | 14.4% | 20.1 µM (≈ 6.72 µg/mL) | 14.4% | 2.51% | + (ratio <10) | 1.35 | 
5 | N#Cc1cccc2c1CCCC2Nc1ncnc2[nH]c(C(F)(F)F)cc12 (stereo not drawn) [Compound 92] | 5.52 | 5.53 | 71.2% | 1 µM (≈ 0.357 µg/mL) | 71.2% | 57.1% | + (ratio <10) | 8.39 | 
6 | OC[C@@H]1CCc2ccccc2[C@H]1Nc1ncnc2[nH]c(C(F)(F)F)cc12 [Compound 94] | 5.96 | 5.94 | 59.5% | 12.9 µM (≈ 4.67 µg/mL) | 59.535% | 27% | + (ratio <10) | 7.25 | 
7 | CC[C@@H]1CCc2ccccc2[C@@H]1Nc1ncnc2[nH]c(C(F)(F)F)cc12 [Compound 100] | 5.74 | 5.74 | 8.7% | 9.39 µM (≈ 3.38 µg/mL) | 8.735% | 5.04% | ++ (ratio 10< × <20) | 13.8 | 
8 | C[C@H]1CCc2ccccc2[C@@H]1Nc1ncnc2[nH]c(C(F)(F)F)cc12 [Compound 102] |  |  | 13.3% | 1 µM (≈ 0.346 µg/mL) |  |  |  |  | pEC50 ([3]; Table 3, read-out: Potency at 1 μM F/O toxin* (EC50 of mitophagy activation)): 6.22; pEC50 ([3]; Table 3 Supplement B, listed as EP-0037882, read-out: Mitophagy EC50 (HeLa mKeima assay)): 6.23; Max cell death at 25 uM compound, 1 uM FO ([4]; listed as EP-0037882): 13.32%; Cell death at 25 μM (no FO) ([4]; listed as EP-0037882): 3.79%; Mitotox safety margin (Therapeutic window) ([5]; listed as EP-0037882): ++++ (ratio 30<); Ratio** ([5]; listed as EP-0037882): 42.16
9 | c1ccc2c(c1)CCC[C@H]2Nc1ncnc2[nH]c(C3CC3)cc12 [Compound 107] | 6.32 | 6.33 | 16.6% | 1 µM (≈ 0.304 µg/mL) | 14.9% | 9.32% | ++++ (ratio 30<) | 53.2 | 
10 | c1coc(CNc2ncnc3[nH]cnc23)c1 [kinetin, reference compound] |  |  |  |  |  |  |  |  | Toxicity (% positive for DAPI take-up @ 50 μM) ([4]; human, 50 μM): 4.9%; Visual inspection of crystallization ([1]; 1.6 μM): 0; Visual inspection of crystallization ([1]; 3.1 μM): 0; Visual inspection of crystallization ([1]; 6.3 μM): 0; Visual inspection of crystallization ([1]; 12.5 μM): 0; Visual inspection of crystallization ([1]; 25.0 μM): 0; Visual inspection of crystallization ([1]; 50.0 μM): 0; Inspection of round cells ([2]; 1.6 μM): 0; Inspection of round cells ([2]; 3.1 μM): 0; Inspection of round cells ([2]; 6.3 μM): 0; Inspection of round cells ([2]; 12.5 μM): 0; Inspection of round cells ([2]; 25 μM): 0; Inspection of round cells ([2]; 50 μM): 0
